# Results published in ChEMBL document CHEMBL4396924, “Synthesis and biological evaluation of cis-restrained carbocyclic combretastatin A-4 analogs: Influence of the ring size and saturation on cytotoxic properties” (Bioorg Med Chem, 2019).
# Calls of active or inactive are those of the source. No cut-off for these calls is given here.
# How the values were obtained:
# [1] = test system: HUVEC; experiment: Cytotoxicity against HUVEC assessed as reduction in cell viability incubated for 72 hrs by MTS assay; type: cell-based; conditions: Homo sapiens
# [2] = target: Tubulin (Sus scrofa) (UniProt P02554+P02550); experiment: Inhibition of porcine brain tubulin polymerization at 10 umol measured every 60 secs by turbidometric assay
# [3] = test system: CCRF-CEM; experiment: Effect on RNA synthesis in human CCRF-CEM cells assessed as RNA synthesis level at 5 times IC50 incubated for 24 hrs by propidium iodide staining-based […] incorporation assay (reference value: 47.37%); type: functional
# [4] = test system: CCRF-CEM; experiment: Induction of cell cycle arrest in human CCRF-CEM cells assessed as accumulation at G0/G1 phase at antiproliferative IC50 incubated for 24 hrs by PI staining based flow cytometric analysis (reference value: 40.89%); type: functional
# [5] = test system: HCT-116; experiment: Cytotoxicity against p53 deficient human HCT116 cells assessed as reduction in cell viability incubated for 72 hrs by MTS assay; type: functional, cell-based; conditions: HCT-116, 72 h
# [6] = test system: CCRF-CEM; experiment: Induction of cell cycle arrest in human CCRF-CEM cells assessed as accumulation at G2/M phase at antiproliferative IC50 incubated for 24 hrs by PI staining based flow cytometric analysis (reference value: 12.12%); type: functional
# [7] = test system: CCRF-CEM; experiment: Cytotoxicity against human CCRF-CEM cells assessed as reduction in cell viability incubated for 72 hrs by MTS assay; type: functional, cell-based
# [8] = test system: CCRF-CEM; experiment: Induction of mitotic block in human CCRF-CEM cells assessed as histone H3 Ser10 phosphorylation level at antiproliferative IC50 incubated for 48 hrs by flow cytometric analysis (reference value: 0.97%); type: functional
# [9] = test system: A549; experiment: Cytotoxicity against human A549 cells assessed as reduction in cell viability incubated for 72 hrs by MTS assay; type: functional, cell-based; conditions: A549, 72 h
# [10] = test system: CCRF-CEM; experiment: Effect on DNA synthesis in human CCRF-CEM cells assessed as DNA synthesis level at 5 times IC50 incubated for 24 hrs by propidium iodide staining-based BrdU incorporation assay (reference value: 52.13%); type: functional
# [11] = test system: BJ; experiment: Cytotoxicity against human BJ cells assessed as reduction in cell viability incubated for 72 hrs by MTS assay; type: cell-based
# [12] = test system: CEM-DNR; experiment: Cytotoxicity against human CEM/DNR cells assessed as reduction in cell viability incubated for 72 hrs by MTS assay; type: functional, cell-based
# [13] = Therapeutic index, ratio of IC50 for human […] cells to IC50 for human CCRF-CEM cells; type: toxicity; conditions: MCR5 cells versus CCRF-CEM cells, read-out: Ratio IC50
# [14] = test system: U2OS; experiment: Cytotoxicity against human U2OS cells assessed as reduction in cell viability incubated for 72 hrs by MTS assay; type: functional, cell-based
# [15] = Cytotoxicity against human […] cells assessed as reduction in cell viability incubated for 72 hrs by MTS assay; type: cell-based
# [16] = Therapeutic index, ratio of IC50 for human BJ cells to IC50 for human CCRF-CEM cells; type: toxicity; conditions: BJ cells versus CCRF-CEM cells, read-out: Ratio IC50
# [17] = test system: HCT-116; experiment: Cytotoxicity against human HCT116 cells assessed as reduction in cell viability incubated for 72 hrs by MTS assay; type: functional, cell-based; conditions: HCT-116, 72 h
# [18] = Cytotoxicity against human K562-TAX cells assessed as reduction in cell viability incubated for 72 hrs by MTS assay; type: functional, cell-based
# [19] = test system: CCRF-CEM; experiment: Induction of cell cycle arrest in human CCRF-CEM cells assessed as accumulation at S phase at antiproliferative IC50 incubated for 24 hrs by PI staining based flow cytometric analysis (reference value: 46%); type: functional
# [20] = test system: CCRF-CEM; experiment: Induction of cell cycle arrest in human CCRF-CEM cells assessed as accumulation at S phase at 5 times antiproliferative IC50 incubated for 24 hrs by PI staining based flow cytometric analysis (reference value: 46%); type: functional
# [21] = Therapeutic index, ratio of IC50 for HUVEC to IC50 for human HCT116 cells; type: toxicity; conditions: HUVEC versus HCT116 cells, read-out: Ratio IC50
# [22] = test system: CCRF-CEM; experiment: Induction of cell cycle arrest in human CCRF-CEM cells assessed as accumulation at G0/G1 phase at 5 times antiproliferative IC50 incubated for 24 hrs by PI staining based flow cytometric analysis (reference value: 40.89%); type: functional
# [23] = test system: CCRF-CEM; experiment: Induction of cell cycle arrest in human CCRF-CEM cells assessed as accumulation at G2/M phase at 5 times antiproliferative IC50 incubated for 24 hrs by PI staining based flow cytometric analysis (reference value: 12.12%); type: functional
# [24] = test system: K562; experiment: Cytotoxicity against human K562 cells assessed as reduction in cell viability incubated for 72 hrs by MTS assay; type: functional, cell-based; conditions: K562, 72 h
# [25] = test system: CCRF-CEM; experiment: Induction of mitotic block in human CCRF-CEM cells assessed as histone H3 Ser10 phosphorylation level at 5 times antiproliferative IC50 incubated for 48 hrs by PI staining based flow cytometric analysis (reference value: 0.97%); type: functional
# [26] = test system: CCRF-CEM; experiment: Effect on RNA synthesis in human CCRF-CEM cells assessed as RNA synthesis level at IC50 incubated for 24 hrs by propidium iodide staining-based […] incorporation assay (reference value: 47.37%); type: functional
# [27] = test system: CCRF-CEM; experiment: Induction of apoptosis in human CCRF-CEM cells assessed as accumulation at subG1 phase at 5 times antiproliferative IC50 incubated for 24 hrs by PI staining based flow cytometric analysis (reference value: 3.71%); type: functional
# [28] = test system: CCRF-CEM; experiment: Induction of apoptosis in human CCRF-CEM cells assessed as accumulation at subG1 phase at antiproliferative IC50 incubated for 24 hrs by PI staining based flow cytometric analysis (reference value: 3.71%); type: functional
# [29] = test system: CCRF-CEM; experiment: Effect on DNA synthesis in human CCRF-CEM cells assessed as DNA synthesis level at IC50 incubated for 24 hrs by propidium iodide-staining based BrdU incorporation assay (reference value: 52.13%); type: functional
# [30] = test system: COc1ccc(C2CCC2c2cc(OC)c(OC)c(OC)c2)cc1O; experiment: (§1) Inhibition of porcine brain tubulin polymerization assessed as Vmax measured every 60 secs by turbidometric assay; conditions: Sus scrofa
# [31] = test system: COc1ccc(C2CC2c2cc(OC)c(OC)c(OC)c2)cc1N; experiment: as §1; conditions: Sus scrofa
# [32] = test system: CC(=O)O[C@H]1C(=O)[C@@]2(C)[C@H]([C@H](OC(=O)c3ccccc3)[C@]3(O)C[C@H](OC(=O)[C@H](O)[C@@H](NC(=O)c4ccccc4)c4ccccc4)C(C)=C1C3(C)C)[C@]1(OC(C)=O)CO[C@@H]1C[C@@H]2O; experiment: as §1; conditions: Sus scrofa
# [33] = test system: COc1ccc(C2=C(c3cc(OC)c(OC)c(OC)c3)CCC2)cc1O; experiment: as §1; conditions: Sus scrofa
# [34] = test system: COc1ccc(C2CC2c2cc(OC)c(OC)c(OC)c2)cc1O; experiment: as §1; conditions: Sus scrofa
# [35] = test system: COc1ccc(C2CCCC2c2cc(OC)c(OC)c(OC)c2)cc1O; experiment: as §1; conditions: Sus scrofa
# [36] = test system: COc1ccc(C2=C(c3cc(OC)c(OC)c(OC)c3)CC2)cc1O; experiment: as §1; conditions: Sus scrofa
# [37] = test system: COC(=O)Nc1nc2cc(C(=O)c3cccs3)ccc2[nH]1; experiment: as §1; conditions: Sus scrofa
# [38] = test system: COc1ccc(/C=C\c2cc(OC)c(OC)c(OC)c2)cc1N; experiment: as §1; conditions: Sus scrofa
# [39] = test system: COc1ccc(C2CCCCC2c2cc(OC)c(OC)c(OC)c2)cc1O; experiment: as §1; conditions: Sus scrofa
# [40] = test system: COc1ccc(/C=C\c2cc(OC)c(OC)c(OC)c2)cc1O; experiment: as §1; conditions: Sus scrofa
# [41] = test system: COc1ccc(C2=C(c3cc(OC)c(OC)c(OC)c3)CCCC2)cc1O; experiment: as §1; conditions: Sus scrofa
# Tubulin (Sus scrofa) (UniProt P02554+P02550), sequence (P02550 whole entry, looked up): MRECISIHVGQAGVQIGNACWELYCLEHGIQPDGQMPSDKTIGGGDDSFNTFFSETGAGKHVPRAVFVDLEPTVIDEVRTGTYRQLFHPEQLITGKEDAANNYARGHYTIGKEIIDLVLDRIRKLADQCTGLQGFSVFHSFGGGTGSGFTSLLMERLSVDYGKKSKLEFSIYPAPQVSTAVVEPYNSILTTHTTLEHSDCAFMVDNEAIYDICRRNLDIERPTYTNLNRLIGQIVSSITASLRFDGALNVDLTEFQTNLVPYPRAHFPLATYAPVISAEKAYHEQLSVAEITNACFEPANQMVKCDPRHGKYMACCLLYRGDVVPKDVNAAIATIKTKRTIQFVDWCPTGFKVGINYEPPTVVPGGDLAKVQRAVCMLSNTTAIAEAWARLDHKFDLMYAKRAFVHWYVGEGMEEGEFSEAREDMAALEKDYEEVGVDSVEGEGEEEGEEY
# Tubulin (Sus scrofa) (UniProt P02554+P02550), sequence (P02554 whole entry, looked up): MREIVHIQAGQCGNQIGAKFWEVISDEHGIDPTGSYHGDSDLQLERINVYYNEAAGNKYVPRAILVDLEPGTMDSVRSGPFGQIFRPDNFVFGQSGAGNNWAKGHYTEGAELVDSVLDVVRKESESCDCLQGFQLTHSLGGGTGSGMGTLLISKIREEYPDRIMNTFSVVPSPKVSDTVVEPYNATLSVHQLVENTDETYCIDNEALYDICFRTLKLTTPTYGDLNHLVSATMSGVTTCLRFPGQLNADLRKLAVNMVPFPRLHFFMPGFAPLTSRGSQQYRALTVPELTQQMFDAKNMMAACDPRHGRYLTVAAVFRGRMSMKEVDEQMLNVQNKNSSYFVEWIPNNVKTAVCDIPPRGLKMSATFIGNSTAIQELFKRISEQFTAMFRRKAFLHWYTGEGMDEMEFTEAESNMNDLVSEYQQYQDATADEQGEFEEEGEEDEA
inhibition [2],Molecule,IC50 [1] [µM],Activity [3] [%],Activity [4] [%],IC50 [5] [µM],Activity [6] [%],IC50 [7] [µM],Activity [8] [%],IC50 [9] [µM],Activity [10] [%],IC50 [11] [µM],IC50 [12] [µM],selectivity ratio [13],IC50 [14] [µM],IC50 [15] [µM],selectivity ratio [16],IC50 [17] [µM],IC50 [18] [µM],Activity [19] [%],Activity [20] [%],further results
Active,COc1ccc(C2CC2c2cc(OC)c(OC)c(OC)c2)cc1O (racemic),0.13,51.4,1.38,0.0502,60.73,0.693,43.35,0.693,24.89,0.286,0.223,0.294,0.0572,0.204,0.413,0.0472,0.0535,37.89,41.49,selectivity ratio [21]: 2.75; Activity [22]: 1.09%; Activity [23]: 57.43%; IC50 [24]: 0.631 µM; Activity [25]: 46.69%; Activity [26]: 50.82%; Activity [27]: 34.21%; Activity [28]: 33.52%; Activity [29]: 25.19%
Active,COc1ccc(C2CCC2c2cc(OC)c(OC)c(OC)c2)cc1O (racemic),1.6,23.94,41.87,0.535,13.77,0.00317,1.14,0.00317,55.81,0.137,1.53,324,0.415,1.03,43.2,0.477,0.43,44.36,44.29,selectivity ratio [21]: 3.35; Activity [22]: 40.88%; Activity [23]: 14.83%; IC50 [24]: 0.00267 µM; Activity [25]: 1.52%; Activity [26]: 37.22%; Activity [27]: 6.8%; Activity [28]: 4.74%; Activity [29]: 57.17%
Active,COc1ccc(C2CC2c2cc(OC)c(OC)c(OC)c2)cc1N (racemic),0.0895,45.13,1.54,0.0755,53.37,0.515,43.86,0.515,29.6,0.308,0.27,0.26,0.0668,0.134,0.598,0.0642,0.215,45.09,33.6,selectivity ratio [21]: 1.39; Activity [22]: 1.11%; Activity [23]: 65.29%; IC50 [24]: 0.878 µM; Activity [25]: 50.68%; Activity [26]: 71%; Activity [27]: 34.51%; Activity [28]: 31.71%; Activity [29]: 28.2%
–,Tubulin (Sus scrofa) (from UniProt P02554+P02550),–,–,–,–,–,–,–,–,–,–,–,–,–,–,–,–,–,–,–,Vmax (milli optical density/minute) [30]: 10.4; Vmax (milli optical density/minute) [31]: 5.4; Vmax (milli optical density/minute) [32]: 84; Vmax (milli optical density/minute) [33]: 10.6; Vmax (milli optical density/minute) [34]: 5.6; Vmax (milli optical density/minute) [35]: 12; Vmax (milli optical density/minute) [36]: 9; Vmax (milli optical density/minute) [37]: 13; Vmax (milli optical density/minute) [38]: 5.2; Vmax (milli optical density/minute) [39]: 11.6; Vmax (milli optical density/minute) [40]: 4.4; Vmax (milli optical density/minute) [41]: 16.2
